Results published in paper PMC6264741, “Chemical Constituents and Biological Studies of the Leaves of Grevillea robusta” (Molecules, 2011).
Like-named read-outs stand apart in the source and are kept apart here. Each block holds one compound with its values, some of them ahead of it. Numbered stars: 1 amine (or outer) side, 2 acyl side, 3 side chain; on linkers, the order of the positions; unused ones are H or OH. Bridge positions count the residues as written; N and C are the ends. Square brackets hold non-standard residues; d marks the D form. Peptide text beside a SMILES is read from it. I, II: the chains in the order shown. Actinocin(9to1) = Cc1c2oc3c(C)ccc(C(=O)[*:1])c3nc-2c(C(=O)[*:2])c(N)c1=O; NMeV = CN[C@H](C(=O)O)C(C)C; Sar = CNCC(=O)O

Assays:
[1] = system: MCF-7 human breast tumor cell line; test: Cytotoxicity assay, MCF-7; format: cell-based; settings: MCF7, mean ± SD (n = 3–8)
Description: (§1) Compounds 1−8, 11−18, 20, and 21 were subjected to cytotoxic evaluation. The clinically applied anticancer agent, actinomycin D, was used as a positive control for the cytotoxicity assays.
(§2) The cytotoxicity assay was carried out according to procedures that have been previously described in the literature.

[2] = system: NCI-H460 human lung tumor cell line; test: Cytotoxicity assay, NCI-H460; format: cell-based; settings: mean ± SD (n = 3–8)
Description: as §1, §2

[3] = system: SF-268 human central nervous system tumor cell line; test: Cytotoxicity assay, SF-268; format: cell-based; settings: mean ± SD (n = 3–8)
Description: as §1, §2

[4] = system: MCF-7 human breast tumor cell line; set-up: method as in PMID 20704331; settings: positive control; cited from earlier work
[5] = system: NCI-H460 human lung tumor cell line; set-up: method as in PMID 20704331; settings: positive control; cited from earlier work
[6] = system: SF-268 human central nervous system tumor cell line; set-up: method as in PMID 20704331; settings: positive control; cited from earlier work
[7] = DPPH free radical scavenging activity assay; set-up: DPPH inhibition activity (Inhibition %): dose or concentration left out as unconfirmed; settings: mean ± S.E.M (n = 3); for IC50: 0.1 mM DPPH in ethanol, 30 min, 517 nm, read-out: DPPH inhibition activity IC50
Description: The free radical scavenging activity of compounds 1, 4, 5, 7, 8, 11−18, and 20 was measured with DPPH^• using the method of Chiu et al.. Briefly, 0.1 mM solution of DPPH^• in ethanol was prepared, and sample (20 μL) was added. The sample was thoroughly mixed and kept in the dark for 30 min. The absorbance was measured at 517 nm on a Quant universal microplate spectrophotometer. α-Tocopherol (Sigma Chemical Co.) was used as a standard agent. A lower absorbance of the reaction mixture indicated a higher free radical scavenging activity. The sample concentration that was used to provide the IC50 data was calculated from a graph plotting inhibition percentage against sample concentration. Tests were performed in triplicate.

SMILES: Cc1c2oc3c(C)ccc(C(=O)N[C@@H]4C(=O)N[C@H](C(C)C)C(=O)N5CCC[C@H]5C(=O)N(C)CC(=O)N(C)[C@@H](C(C)C)C(=O)O[C@@H]4C)c3nc-2c(C(=O)N[C@@H]2C(=O)N[C@H](C(C)C)C(=O)N3CCC[C@H]3C(=O)N(C)CC(=O)N(C)[C@@H](C(C)C)C(=O)O[C@@H]2C)c(N)c1=O [Actinomycin D, actinomycin D] (I: T[dV]P[Sar][NMeV] / II: T[dV]P[Sar][NMeV]; ester I:1-I:C, II:1-II:C; linker I:N-II:N via Actinocin(9to1))
IC50 [4]: 0.103 µM
IC50 [5]: 0.008 µM
IC50 [6]: 0.016 µM

SMILES: COC(=O)C=Cc1cc(O)ccc1O [Compound 4, methyl 2,5-dihydroxycinnamate]
IC50 [1]: > 50 µM
IC50 [2]: > 50 µM
IC50 [3]: > 50 µM
IC50 [7]: 0.53 ± 0.09 µM

SMILES: Oc1cc2cc(c1)Oc1c(O)cc(cc1O)[C@H](O)CCCCCCCCCCCCC2 [Compound 5, gravicycle]
IC50 [7]: 25.7 ± 0.32 µM

SMILES: COc1cc(O)cc2c1-c1c(O)cc(cc1O)CCCCCCCCCCCCCC2 [Compound 11, methylgraviphane]
DPPH inhibition activity (Inhibition %) [7]: (28.21 ± 0.23) %

SMILES: COc1cc(O)cc2c1-c1c(O)cc(cc1O)CCCCCCCC=CCCCCC2 [Compound 12, methyldehydrograviphane]
IC50 [7]: 15.7 ± 0.31 µM

SMILES: Oc1cc(O)c2c(c1)CCCCC/C=C/CCCCCCCc1cc(O)c-2c(O)c1 [Compound 14, dehydrograviphane]
IC50 [7]: 2.05 ± 0.22 µM

SMILES: COc1cc(O)cc(CCCCCCC/C=C/CCCCCc2cc(O)cc(O)c2)c1 [Compound 16, dehydrobisgravillol]
IC50 [7]: 28.9 ± 0.67 µM

SMILES: Oc1cc(O)cc(CCCCCC=CCCCCCCCc2cc(O)cc(O)c2)c1 [Compound 18, 5-[14'-(3'',5''-dihydroxyphenyl)-cis-tetradec-6'-en-1'-yl]benzene-1,3-diol]
IC50 [7]: 35.2 ± 0.48 µM

SMILES: CCCCCCCCCCCCCCCc1cc(O)cc(O)c1 [Compound 20, cis-5-n-pentadecylresorcinol]
DPPH inhibition activity (Inhibition %) [7]: (21.32 ± 0.21) %

Continued, in another order:

melting point: 62 to 64 °C
SMILES: CCCCCCCCCCCCCCC[C@H]1CC(=O)C[C@@H](O)C1 (relative stereo) [Compound 2, cis-3-hydroxy-5-pentadecylcyclohexanone]
IC50 [1]: 26.7 ± 1.9 µM
IC50 [2]: 42.6 ± 3.6 µM
IC50 [3]: 20.5 ± 0.6 µM

IC50 [7]: 23 ± 0.53 µM
SMILES: COC(=O)/C=C/C1(O)C=CC(=O)C=C1 [Compound 1, 4-hydroxy-4-(3-methoxycarbonyl)ethenylcyclohexadien-1-one]
IC50 [1]: 15 ± 3 µM
IC50 [2]: 10.8 ± 2.3 µM
IC50 [3]: 5.9 ± 0.1 µM

melting point: 98 to 100 °C
SMILES: CCOc1ccc(O)c(C=CC(=O)OC)c1 [Compound 3, methyl 5-ethoxy-2-hydroxycinnamate]
IC50 [1]: > 50 µM
IC50 [2]: > 50 µM
IC50 [3]: > 50 µM

IC50 [7]: 28.8 ± 0.42 µM
SMILES: Oc1cc2cc(c1)Oc1c(O)cc(cc1O)CCCCCCCCCCCCCC2 [Compound 7, robustol]

IC50 [7]: 11.8 ± 0.88 µM
SMILES: Oc1cc2cc(c1)Oc1c(O)cc(cc1O)CCCCCCCC=CCCCCC2 [Compound 8, dehydrobustol-A]

IC50 [7]: 3.96 ± 0.55 µM
SMILES: Oc1cc(O)c2c(c1)CCCCCCCCCCCCCCc1cc(O)c-2c(O)c1 [Compound 13, graviphane]

IC50 [7]: 36.7 ± 0.43 µM
SMILES: COc1cc(O)cc(CCCCCCCCCCCCCCc2cc(O)cc(O)c2)c1 [Compound 15, bisgravillol]

IC50 [7]: 31.3 ± 0.34 µM
SMILES: Oc1cc(O)cc(CCCCCCCCCCCCCCc2cc(O)cc(O)c2)c1 [Compound 17, bis-norstriatol]

IC50 [7]: 3.1 ± 0.05 µM
SMILES: Cc1c(C)c2c(c(C)c1O)CC[C@@](C)(CCC[C@H](C)CCC[C@H](C)CCCC(C)C)O2 [α-tocopherol, reference compound]
